Data taken from ChEMBL document CHEMBL3259742, “Design and synthesis of triazolopyrimidine acylsulfonamides as novel anti-mycobacterial leads acting through inhibition of acetohydroxyacid synthase” (Bioorg Med Chem Lett, 2014).
In brackets after ≈: the same amount, converted by molar mass.

Columns and labels:
[1] = Inhibition of Mycobacterium tuberculosis acetohydroxy acid synthase after 60 mins by acetoin formation-based colorimetry
[2] = tested on: Mycobacterium tuberculosis; assay: Antimycobacterial activity against Mycobacterium tuberculosis H37Rv ATCC 27294 after 7 days by resazurin assay; format: functional; settings: H37Rv ATCC 27294, 168 h
[3] = tested on: Mycobacterium tuberculosis; assay: Antimycobacterial activity against Mycobacterium tuberculosis H37Rv ATCC 27294 after 7 days by resazurin assay in presence of Isoleucine, Leucine and Valine; format: functional; settings: H37Rv ATCC 27294, 168 h

Compound: Cc1cc(C)n2nc(C(=O)NS(=O)(=O)c3ccccc3CC#N)nc2n1
- pIC50 [1]: 6.59
- MIC [2]: 32 µg/mL (≈ 86.4 µM)

Compound: Cc1cc(C)n2nc(C(=O)NS(=O)(=O)c3c(C)cccc3Cl)nc2n1
- MIC [3]: > 32 µg/mL
- pIC50 [1]: 6.7
- MIC [2]: 0.25 µg/mL (≈ 0.658 µM)

Compound: Cc1cc(C)n2nc(C(=O)NS(=O)(=O)c3cccc(Br)c3)nc2n1
- pIC50 [1]: 5.31
- MIC [2]: 32 µg/mL (≈ 78 µM)

Compound: COc1ccccc1S(=O)(=O)NC(=O)c1nc2nc(C)cc(C)n2n1
- MIC [3]: > 32 µg/mL
- pIC50 [1]: 5.81
- MIC [2]: 0.5 µg/mL (≈ 1.38 µM)

Compound: COC(=O)c1ccccc1S(=O)(=O)NC(=O)Nc1nc(C)cc(C)n1 [SULFOMETURON METHYL]
- MIC [3]: > 32 µg/mL
- pIC50 [1]: 6.12
- MIC [2]: 16 µg/mL (≈ 43.9 µM)

Compound: Cc1cc(C)n2nc(C(=O)NS(=O)(=O)c3ccc(OC(F)(F)F)cc3)nc2n1
- pIC50 [1]: < 4.52
- MIC [2]: > 32 µg/mL

Compound: Cc1cc(C)n2nc(C(=O)NS(=O)(=O)c3ccccc3Cl)nc2n1
- MIC [3]: > 32 µg/mL
- pIC50 [1]: 6.82
- MIC [2]: 2 µg/mL (≈ 5.47 µM)

Compound: Cc1cc(C)n2nc(C(=O)NS(=O)(=O)c3cccc(OC(F)(F)F)c3)nc2n1
- pIC50 [1]: 5.6
- MIC [2]: 16 µg/mL (≈ 38.5 µM)

Compound: Cc1cc(C)n2nc(C(=O)NS(=O)(=O)c3ccccc3OC(F)(F)F)nc2n1
- MIC [3]: > 32 µg/mL
- pIC50 [1]: 7.6
- MIC [2]: 0.03 µg/mL (≈ 0.0722 µM)

Compound: Cc1cc(C)n2nc(C(=O)NS(=O)(=O)c3cccc(C(F)(F)F)c3)nc2n1
- pIC50 [1]: 5.36
- MIC [2]: 16 µg/mL (≈ 40.1 µM)

Compound: Cc1cc(C)n2nc(C(=O)NS(=O)(=O)c3ccccc3OC(F)F)nc2n1
- MIC [3]: > 32 µg/mL
- pIC50 [1]: > 7.2
- MIC [2]: < 0.25 µg/mL

Compound: Cc1cc(C)n2nc(C(=O)NS(=O)(=O)c3ccccc3Br)nc2n1
- MIC [3]: > 32 µg/mL
- pIC50 [1]: 7.04
- MIC [2]: 0.25 µg/mL (≈ 0.609 µM)

Compound: Cc1cc(C)n2nc(C(=O)NS(=O)(=O)c3ccc(C(F)(F)F)cc3)nc2n1
- pIC50 [1]: < 4.52
- MIC [2]: > 32 µg/mL

Compound: COC(=O)c1ccccc1S(=O)(=O)NC(=O)c1nc2nc(C)cc(C)n2n1
- MIC [3]: > 32 µg/mL
- pIC50 [1]: 7.15
- MIC [2]: 0.25 µg/mL (≈ 0.642 µM)

Compound: Cc1cc(C)n2nc(C(=O)NS(=O)(=O)c3ccccc3C(F)(F)F)nc2n1
- MIC [3]: > 32 µg/mL
- pIC50 [1]: 6.98
- MIC [2]: ≤ 0.13 µg/mL

Compound: Cc1cc(C)n2nc(C(=O)NS(=O)(=O)c3c(C)cccc3OC(F)(F)F)nc2n1
- MIC [3]: > 32 µg/mL
- pIC50 [1]: 7.75
- MIC [2]: ≤ 0.03 µg/mL

Compound: Cc1cc(C)n2nc(C(=O)NS(=O)(=O)c3ccccc3C)nc2n1
- MIC [3]: > 32 µg/mL
- pIC50 [1]: 6.29
- MIC [2]: 1 µg/mL (≈ 2.9 µM)

Compound: Cc1cc(C)n2nc(C(=O)NS(=O)(=O)c3c(C)cccc3C)nc2n1
- MIC [3]: > 32 µg/mL
- pIC50 [1]: 6.54
- MIC [2]: 0.5 µg/mL (≈ 1.39 µM)

Compound: Cc1cc(C)n2nc(C(=O)NS(=O)(=O)c3ccccc3F)nc2n1
- MIC [3]: > 32 µg/mL
- pIC50 [1]: 5.24
- MIC [2]: > 32 µg/mL
